Where two headings read alike, the source gives them in different places.
Tests used:
DENV-2 16681 strain = test: DENV-2 antiviral assay (eGFP fluorescence, Vero cells); type: cell-based, Dengue virus; conditions: DENV-2 16681 eGFP, MOI 0.5, 3 days
Method: The antiviral activity of all the compounds of the invention was tested against the DENV-2 16681 strain which was labeled with enhanced green fluorescent protein (eGPF). The culture medium consists of minimal essential medium supplemented with 2% of heat-inactivated fetal calf serum, 0.04% gentamycin (50 mg/mL) and 2 mM of L-glutamine. Vero cells, obtained from ECACC, were suspended in culture medium and 25 μL was added to 384-well plates (2500 cells/well), which already contain the antiviral compounds. Typically, these plates contain a 5-fold serial dilution of 9 dilution steps of the test compound at 200 times the final concentration in 100% DMSO (200 nL). […] Finally, each plate contains wells which are assigned as virus controls (containing cells and virus in the absence of compound), cell controls (containing cells in the absence of virus and compound) and medium controls (containing medium in the absence of cells, virus and compounds). To the wells assigned as medium control, 25 μL of culture medium was added instead of Vero cells. Once the cells were added to the plates, the plates were incubated for 30 minutes at room temperature to allow the cells to distribute evenly within the wells. Next, the plates were incubated in a fully humidified incubator (37° C., 5% CO2) until the next day. Then, DENV-2 strain 16681, labeled with eGFP, was added at a multiplicity of infection (MOI) of 0.5. Therefore, 15 μL of virus suspension was added to all the wells containing test compound and to the wells assigned as virus control. In parallel, 15 μL of culture medium was added to the medium and cell controls. Next, the plates were incubated for 3 days in a fully humidified incubator (37° C., 5% CO2). At the day of the read out, the eGFP fluorescence was measured using an automated fluorescence microscope at 488 nm (blue laser). Using an in-house LIMS system, inhibition dose response curves for each compound were calculated and the half maximal effective concentration (EC50) was determined. Therefore, the percent inhibition (I) for every test concentration is calculated using the following formula: I=100*(ST-SCC)/(SVC-SCC), ST, SCC and SVC are the amount of eGFP signal in the test compound, cell control and virus control wells, respectively. The EC50 represents the concentration of a compound at which the virus replication is inhibited with 50%, as measured by a 50% reduction of the eGFP fluorescent intensity compared to the virus control. The EC50 is calculated using linear interpolation (Table 1).

DENV-1 strain TC974#666 = test: Tetravalent RT-qPCR assay Protocol A, serotype 1; type: cell-based; conditions: Dengue virus, DENV1, 72 h; RT-qPCR serotype 1 TC974#666, Vero cells, day 3
Method: (§1) The antiviral activity of the compounds of the invention was tested against DENV-1 strain TC974#666 (NCPV), DENV-2 strain 16681, DENV-3 strain H87 (NCPV) and DENV-4 strain H241 (NCPV) in a RT-qPCR assay. Therefore, Vero cells were infected with either DENV-1, or -2, or -3, or -4 in the presence or absence of test compounds. At day 3 post-infection, the cells were lysed and cell lysates were used to prepare cDNA of both a viral target (the 3′UTR of DENV; Table 2) and a cellular reference gene (β-actin, Table 2). Subsequently, a duplex real time PCR was performed on a Lightcycler480 instrument. The generated Cp value is inversely proportional to the amount of RNA expression of these targets. Inhibition of DENV replication by a test compound results in a shift of Cp's for the 3′UTR gene. On the other hand, if a test compound is toxic to the cells, a similar effect on β-actin expression will be observed. The comparative ΔΔCp method is used to calculate EC50, which is based on the relative gene expression of the target gene (3′UTR) normalized with the cellular housekeeping gene (β-actin). In addition, CC50 values are determined based on the Cp values acquired for the housekeeping gene β-actin.
(§2) The culture medium consisted of minimal essential medium supplemented with 2% of heat-inactivated fetal calf serum, 0.04% gentamycin (50 mg/mL) and 2 mM of L-glutamine. Vero cells, obtained from ECACC, were suspended in culture medium and 75 μL/well was added in 96-well plates (10000 cells/well), which already contain the antiviral compounds. […] In addition, each plate contains wells which are assigned as virus controls (containing cells and virus in the absence of compound) and cell controls (containing cells in the absence of virus and compound). Once the cells were added in the plates, the plates were incubated in a fully humidified incubator (37° C., 5% CO2) until the next day. Dengue viruses serotype-1, 2, 3 and 4 were diluted in order to obtain a Cp of ˜22-24 in the assay. Therefore, 25 μL of virus suspension was added to all the wells containing test compound and to the wells assigned as virus control. In parallel, 25 μL of culture medium was added to the cell controls. Next, the plates were incubated for 3 days in a fully humidified incubator (37° C., 5% CO2). After 3 days, the supernatant was removed from the wells and the cells were washed twice with ice-cold PBS (˜100 μL). The cell pellets within the 96-well plates were stored at −80° C. for at least 1 day. Next, RNA was extracted using the Cells-to-CT™ lysis kit, according to the manufacturer's guideline (Life Technologies). The cell lysates can be stored at −80° C. or immediately used in the reverse transcription step.
(§3) In preparation of the reverse transcription step, mix A (table 3A) was prepared and 7.57 μL/well was dispensed in a 96-well plate. After addition of 5 μL of the cell lysates, a five minute denaturation step at 75° C. was performed (table 3B). Afterwards, 7.43 μL of mix B was added (table 3C) and the reverse transcription step was initiated (table 3D) to generate cDNA.
(§4) Finally, a RT-qPCR mix was prepared, mix C (table 4A), and 22.02 μL/well was dispensed in 96-well LightCycler qPCR plates to which 3 μL of cDNA was added and the qPCR was performed according to the conditions in table 4B on a LightCycler 480.
(§5) Using the LightCycler software and an in-house LIMS system, dose response curves for each compound were calculated and the half maximal effective concentration (EC50) and the half maximal cytotoxic concentration (CC50) were determined (Tables 5-8).

DENV-2 strain 16681 = test: Tetravalent RT-qPCR assay Protocol A, serotype 2; type: cell-based; conditions: Dengue virus
Method: as §1, §2, §3, §4, §5

DENV-3 strain H87 = test: Tetravalent RT-qPCR assay Protocol A, serotype 3; type: cell-based; conditions: Dengue virus, DENV3, 72 h; RT-qPCR serotype 3 H87, Vero cells, day 3
Method: as §1, §2, §3, §4, §5

DENV-4 strain H241 = test: Tetravalent RT-qPCR assay Protocol A, serotype 4; type: cell-based; conditions: Dengue virus, DENV4, 72 h; RT-qPCR serotype 4 H241, Vero cells, day 3
Method: as §1, §2, §3, §4, §5

Vero cells = conditions: African green monkey
in vitro [1] = conditions: African green monkey
in vitro [2] = type: cell-based; conditions: African green monkey
Method: as §1, §2, §3, §4, §5

[3] = DENV2, 72 h, RT-qPCR serotype 2 16681, Vero cells, day 3, read-out: EC50

## COc1cc(NC(C(=O)N2CCc3c(C)cc(OC(F)(F)F)cc32)c2ccc(Cl)cc2OCCO)cc(-n2cncn2)c1 (single isomer, unassigned) [Compound 10B]
DENV-2 16681 strain
  EC50: 0.25 nM
DENV-1 strain TC974#666
  EC50: 0.36 nM
DENV-2 strain 16681; [3]
  EC50: 0.15 nM
DENV-3 strain H87
  EC50: 5.9 nM
DENV-4 strain H241
  EC50: 32 nM
Vero cells
  CC50: 11000 nM

## COc1cc(NC(C(=O)N2CCc3cc(F)c(OC(F)(F)F)cc32)c2ccc(Cl)cc2OCCO)cc(-n2cncn2)c1 (single isomer, unassigned) [Compound 9B]
DENV-2 16681 strain
  EC50: 0.6 nM
DENV-1 strain TC974#666
  EC50: 0.99 nM
DENV-2 strain 16681; [3]
  EC50: 0.47 nM
DENV-3 strain H87
  EC50: 6.4 nM
DENV-4 strain H241
  EC50: 87 nM
Vero cells
  CC50: 10000 nM

## COc1cc(NC(C(=O)N2CCc3cc(OC)c(OC(F)(F)F)cc32)c2ccc(Cl)cc2OCCO)cc(-n2cncn2)c1 (single isomer, unassigned) [Compound 8A]
DENV-2 16681 strain
  EC50: 1.5 nM
DENV-1 strain TC974#666
  EC50: 2 nM
DENV-2 strain 16681; DENV2, Vero, 72 h
  EC50: 0.38 nM
DENV-3 strain H87
  EC50: 15 nM
DENV-4 strain H241
  EC50: 56 nM
In vitro [1]
  CC50: 12000 nM

## COc1cc(NC(C(=O)N2CCc3ccc(OC(F)(F)F)cc32)c2ccc(Cl)cc2OCCCC(=O)O)cc(-n2cncn2)c1 (single isomer, unassigned) [Compound 13A]
DENV-2 16681 strain
  EC50: 0.12 nM
DENV-1 strain TC974#666
  EC50: 0.12 nM
DENV-2 strain 16681; [3]
  EC50: 0.057 nM
DENV-3 strain H87
  EC50: 1.8 nM
DENV-4 strain H241
  EC50: 10 nM
In vitro [2]
  CC50 at 3 days: > 2500 nM
In vitro [1]
  CC50: 12000 nM

## COc1cc(NC(C(=O)N2CCc3ccc(OC(F)(F)F)cc32)c2ccc(Cl)cc2OCCCC(=O)O)cc(-n2cncn2)c1 (single isomer, unassigned) [Compound 13B]
DENV-2 16681 strain
  EC50: 12 nM
Vero cells
  CC50: 12000 nM

## COc1cc(NC(C(=O)N2CCc3cc(F)c(C(F)(F)F)cc32)c2ccc(Cl)cc2OCCO)cc(-n2cncn2)c1 (single isomer, unassigned) [Compound 7B]
DENV-2 16681 strain
  EC50: 1.8 nM
DENV-1 strain TC974#666
  EC50: 0.88 nM
DENV-2 strain 16681; [3]
  EC50: 1.9 nM
DENV-3 strain H87
  EC50: 13 nM
DENV-4 strain H241
  EC50: 120 nM
Vero cells
  CC50: 7600 nM

## COc1cc(NC(C(=O)N2CCc3cc(OC)c(C(F)(F)F)cc32)c2ccc(Cl)cc2OCCCC(=O)O)cc(-n2cncn2)c1 (single isomer, unassigned) [Compound 12B]
DENV-2 16681 strain
  EC50: 320 nM
Vero cells
  CC50: 12000 nM

## COc1cc(NC(C(=O)N2CCc3ccc(OC(F)(F)F)cc32)c2ccc(F)cc2OCCO)cc(-n2cncn2)c1 (single isomer, unassigned) [Compound 3B]
DENV-2 16681 strain
  EC50: 0.99 nM
DENV-1 strain TC974#666
  EC50: 2.4 nM
DENV-2 strain 16681; [3]
  EC50: 1.4 nM
DENV-3 strain H87
  EC50: 23 nM
DENV-4 strain H241
  EC50: 98 nM
Vero cells
  CC50: 8700 nM

## COc1cc(NC(C(=O)N2CCc3ccc(OC(F)(F)F)cc32)c2ccc(Cl)cc2OCCO)cc(-n2cncn2)c1 (single isomer, unassigned) [Compound 6B]
DENV-2 16681 strain
  EC50: 92 nM
Vero cells
  CC50: 7300 nM

## COc1cc(NC(C(=O)N2CCc3cc(F)c(OC(F)(F)F)cc32)c2ccc(Cl)cc2OCCO)cc(-n2cncn2)c1 (single isomer, unassigned) [Compound 9A]
DENV-2 16681 strain
  EC50: 250 nM
Vero cells
  CC50: 4200 nM

## COc1cc(NC(C(=O)N2CCc3ccc(OC(F)(F)F)cc32)c2ccc(Cl)cc2OCCO)cc(-n2cncn2)c1 (single isomer, unassigned) [Compound 6A]
DENV-2 16681 strain
  EC50: 0.59 nM
DENV-1 strain TC974#666
  EC50: 0.64 nM
DENV-2 strain 16681; [3]
  EC50: 0.49 nM
DENV-3 strain H87
  EC50: 8.1 nM
DENV-4 strain H241
  EC50: 60 nM
In vitro [1]
  CC50: 8500 nM

## COc1cc(NC(C(=O)N2CCc3cc(OC)c(C(F)(F)F)cc32)c2ccc(Cl)cc2OCCCC(=O)O)cc(-n2cncn2)c1 (single isomer, unassigned) [Compound 12A]
DENV-2 16681 strain
  EC50: 1.2 nM
DENV-1 strain TC974#666
  EC50: 2.1 nM
DENV-2 strain 16681; [3]
  EC50: 0.42 nM
DENV-3 strain H87
  EC50: 36 nM
DENV-4 strain H241
  EC50: 100 nM
In vitro [1]
  CC50: 13000 nM

## COc1cc(NC(C(=O)N2CCc3cc(F)c(OC(F)(F)F)cc32)c2ccc(Cl)cc2OCCCC(=O)O)cc(-n2cncn2)c1 (single isomer, unassigned) [Compound 15B]
DENV-2 16681 strain
  EC50: 0.13 nM
DENV-1 strain TC974#666
  EC50: 0.13 nM
DENV-2 strain 16681; DENV2, Vero, 72 h
  EC50: 0.1 nM
DENV-3 strain H87
  EC50: 2.8 nM
DENV-4 strain H241
  EC50: 15 nM
Vero cells
  CC50: 11000 nM

## COc1cc(NC(C(=O)N2CCc3cc(OC)c(OC(F)(F)F)cc32)c2ccc(Cl)cc2OCCO)cc(-n2cncn2)c1 (single isomer, unassigned) [Compound 8B]
DENV-2 16681 strain
  EC50: 250 nM
Vero cells
  CC50: 12000 nM

## COc1cc(NC(C(=O)N2CCc3cc(OC)c(C(F)(F)F)cc32)c2ccc(Cl)cc2OCCCC(=O)O)cc(-n2cncn2)c1 (racemic) [Compound 12, 4-(5-chloro-2-(1-((3-methoxy-5-(1H-1,2,4-triazol-1-yl)phenyl)amino)-2-(5-methoxy-6-(trifluoromethyl)indolin-1-yl)-2-oxoethyl)phenoxy)butanoic acid]
DENV-2 16681 strain; Dengue virus, DENV2, Vero, 72 h
  EC50: 2.2 nM
In vitro [1]
  CC50: 13000 nM
